In patent publication US4562151A, “Stabilization of L-phenylalanine ammonia-lyase enzyme” (Monsanto Company, priority 1983, dated 1985):

Assays:
[1] = system: L-phenylalanine ammonia-lyase; experiment: Relative effect of polyhydric alcohols on PAL activity, 19 hour incubation (Table III); type: biochemical, R. glutinis; conditions: for PAL Enzyme Activity: 240 mM cinnamate, 6.0 M ammonia, pH 11.5, 37° C., cells about 90 mg/ml, 19 hour incubation, control without alcohol 28; for Stabilizing effect on L-phenylalanine ammonia-lyase: monohydric and dihydric alcohols, concentration not given
Description: The reaction mixture consisted of 6.0 M ammonia, 240 mM cinnamate, R. glutinis cells and the above described polyhydric alcohol at pH 11.5 and 37° C. The final concentration of R. glutinis cells was approximately 90 mg/ml (wet weight). L-phenylalanine formation was determinted by high pressure liquid chromatography following a 19 hour incubation period.

[2] = system: L-phenylalanine ammonia-lyase enzyme; experiment: 24 hour time course of L-phenylalanine formation with and without glycerol (Figure); type: biochemical, R. glutinis; conditions: 2.0 M glycerol, 200 mM cinnamate, 6.0 M ammonia, pH 11.5, 37° C., cells about 90 mg/ml
Description: Further experiments have shown that polyhydric alcohols, such as glycerol, have a substantial effect on the short-term activity of the L-phenylalanine ammonia-lyase enzyme in addition to a stabilizing effect on the long-term activity of the enzyme. The relative rates of L-phenylalanine formation from trans-cinnamate for a twenty-four hour period in the presence and absence of glycerol are plotted in the graph shown in the Figure. The reaction mixture consisted of 200 mM cinnamate, 6.0 M ammonia, 2.0 M glycerol and R. glutinis cells at pH 11.5 and 37° C. The final concentration of R. glutinis cells was approximately 90 mg/ml(wet weight). L-phenylalanine formation was determined by high pressure liquid chromatography. The amount of L-phenylalanine formed in twenty-four hours in the absence of glycerol was taken as 100.

[3] = system: L-phenylalanine ammonia-lyase enzyme; experiment: Effect of cinnamate concentration on PAL activity, R. glutinis cells, with or without glycerol (Table I); type: biochemical, Rhodotorula glutinis; conditions: for PAL Activity with glycerol: glycerol 2.3 M, ammonia 6.8 M, pH 11.2, 37° C., activity at 46.1 mM cinnamate taken as 100
Description: For conciseness, the following explanation and examples of the present invention are described with respect to L-phenylalanine ammonia-lyase enzyme from Rhodotorula glutinis cells (ATCC 15385) known to catalyze the reversible reaction between trans-cinnamate and an ammonia donor to form L-phenylalanine. To facilitate transport of substrate and product across the cell membrane about 3 to 5 microliters of polyethyleneglycol-p-isooctylphenylether per gram wet weight of cells is preferably added to the microbial cell suspension. It should be understood that the addition of polyethylene glycol-p-isooctylphenylether or other detergents which increase the permeability of cell membranes is not necessary for practice of the present invention.
The effects of increasing cinnamate concentrations on the reactivity of L-phenylalanine ammonia-lyase enzyme with and without the addition of glycerol are shown in Table I.
^(1) glycerol concentration = 2.3 M, ammonia concentration = 6.8 M; p
of the reaction mixture = 11.2; temperature = 37° C.; concentratio
of R. glutinis cells = 90 mg/ml. Enzyme activity at 46.1 mM cinnamate was
^(2) ammonia concentration = 6.8 M; pH of the reaction mixture = 11.2
temperature = 37° C.; concentration of R. glutinis cells = 90
mg/ml. Enzyme activity at 60.0 mM cinnamate was taken as 100.

`OC[C@@H](O)[C@@H](O)[C@H](O)[C@H](O)CO` [D-mannitol] was tested, and the “PAL Enzyme Activity” value ([1]; alcohol 0.43 M) was 29.

`OC[C@@H](O)[C@@H](O)[C@H](O)[C@@H](O)CO` [D-sorbitol] was tested, and the “PAL Enzyme Activity” value ([1]; alcohol 0.43 M) was 74.

With `CCCCO` [butanol] the “Stabilizing effect on L-phenylalanine ammonia-lyase” value [1] was “found not to generate the stabilizing effect”.

For `CCO` [ethanol], the “Stabilizing effect on L-phenylalanine ammonia-lyase” value [1] was “found not to generate the stabilizing effect”.

With `OCCO` [ethylene glycol] the “Stabilizing effect on L-phenylalanine ammonia-lyase” value [1] was “found not to generate the stabilizing effect”.

With `OCC(O)CO` [glycerol] the “Instantaneous rate of reaction (initial slope of curve) versus control without glycerol” value [2] was “higher instantaneous rate of reaction”, the “L-phenylalanine formed during the 12 to 24 hr period (long term stabilizing effect)” value ([2]; without glycerol enzyme essentially inactivated after 12 hours) was “substantial amount of L-phenylalanine formed during the 12 to 24 hr period” and the “PAL Enzyme Activity” value ([1]; alcohol 0.72 M) was 100. For the same molecule, the “PAL Activity with glycerol” value ([3]; 46.1 mM cinnamate, R. glutinis cells 90 mg/ml) was 100, the “PAL Activity with glycerol” value ([3]; 140.0 mM cinnamate, cells 90 mg/ml) was 100 and the “PAL Activity with glycerol” value ([3]; 185.0 mM cinnamate, cells 90 mg/ml) was 75. For the same molecule, the “PAL Activity with glycerol” value ([3]; 250.0 mM cinnamate, cells 90 mg/ml) was 59 and the “Activity of L-phenylalanine ammonia-lyase at 250 mM cinnamate relative to that measured at 50 mM” value ([3]; 250 mM versus 50 mM cinnamate, in presence of glycerol) was “about 60%”.

With `CO` [methanol] the “Stabilizing effect on L-phenylalanine ammonia-lyase” value [1] was “found not to generate the stabilizing effect”.
